The values that follow come from ChEMBL document CHEMBL1201862, “PubChem BioAssay data set” (2004).

SMILES strings stand for the structures.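 The compound was tested at five concentrations on cells cultured in 96-well plates, with a 48-hour exposure period. At the GI50, growth is halved.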 Calls of active or inactive are those of the source. Cut-off read from the data, not from the text of the source: active = GI50 up to about 1.1 µM and inactive = higher.

Common to all, as to experiment: NCI-60 cell line screen, 48 h
Assay [1] concerns A498.
For assay [2], the system named is DMS-114.
Assay [3] has as its system HCT-116.
The subject of assay [4] is HCT-15.
Assay [5] has as its system HOP-92.
Assay [6] relates to NCI-H522.
Assay [7] deals with OVCAR-4.
Assay [8] deals with OVCAR-5.
Assay [9] deals with SK-MEL-28.
Assay [10] deals with SNB-19.
The subject of assay [11] is SNB-75.
Assay [12] deals with TK-10.
In assay [13] the test system is U-251.
Assay [14] relates to UACC-257.
The subject of assay [15] is UACC-62.
The test system of assay [16] is UO-31.
The subject of assay [17] is NCI-H23.
The subject of assay [18] is OVCAR-8.
In assay [19] the test system is DU-145.

As for `Oc1nnc(CNc2ccc(Cl)cc2Cl)c2ccccc12`, the GI50 in assay [1] is 8.24 µM (inactive); in assay [2], 13.9 µM (inactive); in assay [3], 22.8 µM (inactive); in [4], 20.1 µM; in [5], 32.7 µM (inactive); in assay [6], 18.2 µM (inactive). The GI50 in assay [7] is 16.5 µM (inactive); in assay [8] it was 24.4 µM (inactive); in assay [9], 22.3 µM (inactive); in assay [10] it was 28.1 µM (inactive); in assay [11] it was 23.6 µM (inactive); in assay [12] it was 20.7 µM (inactive). Also, the GI50 is 18.2 µM (inactive) in assay [13], 33.4 µM (inactive) in [14], 27.5 µM (inactive) in [15] and 17.3 µM (inactive) in [16].
Turning to `CCn1c(=O)c2ccccc2n2c(=O)c3cc4ccccc4cc3nc12`, the GI50 was > 100 µM (inactive) in assay [1]; > 100 µM (inactive) in [2]; > 100 µM (inactive) in assay [3]; above 100 µM in assay [4]; > 100 µM (inactive) in assay [17]; 98.9 µM (inactive) in [6]. Moreover, the GI50 in assay [8] is > 100 µM (inactive); in [18] it was 52.2 µM (inactive); in assay [10], 52.1 µM (inactive); in [11], 27.4 µM (inactive); in [12], > 100 µM (inactive); in assay [13], > 100 µM (inactive). The GI50 in assay [14], in assay [15] and in assay [16] was > 100 µM (inactive) in each case.
Take `O=S1(=O)COc2ccccc2-c2ncncc21`: the GI50 in assay [1] was > 100 µM (inactive); in [2], > 100 µM (inactive); in [3] it was > 100 µM (inactive); in assay [4], above 100 µM; in assay [5], > 100 µM (inactive); in assay [17], > 100 µM (inactive). Moreover, the GI50 in [6], in assay [7], in assay [8], in [18], in assay [9] and in [10] was > 100 µM (inactive) throughout. In addition, the GI50 in assay [11], in assay [12], in assay [13], in assay [14], in assay [15] and in assay [16] was > 100 µM (inactive) throughout.
As for `COc1cc2cnc3c4ccccc4ccc3c2cc1OC`, the GI50 in [1], in assay [2], in [17], in assay [6], in assay [7] and in assay [8] was > 100 µM (inactive) in each case. Also, the GI50 in [18], in assay [9], in assay [10], in [11], in assay [12] and in assay [13] was > 100 µM (inactive) in each case. Moreover, the GI50 in assay [14], in [15] and in [16] was > 100 µM (inactive) each time.
In the case of `Cc1nc(N)nc(CCC(=O)Nc2cccc(C(F)(F)F)c2)c1-c1ccc(Cl)cc1`, the GI50 in assay [1] is > 100 µM (inactive); in assay [2], > 100 µM (inactive); in [3], > 100 µM (inactive); in assay [4] it was above 100 µM; in assay [5], > 100 µM (inactive); in assay [17] it was > 100 µM (inactive). Besides, the GI50 in assay [6], in assay [7], in assay [8], in [18], in assay [9] and in assay [10] was > 100 µM (inactive) in each case. Besides, the GI50 in assay [11], in assay [12], in assay [13], in assay [14], in [15] and in assay [16] was > 100 µM (inactive) each time.
As to `CN(C)/C=N\c1ccn(CCO)c(=O)n1`, the GI50 in [1] is > 100 µM (inactive); in assay [2] it was > 100 µM (inactive); in [3], > 100 µM (inactive); in assay [4], above 100 µM; in assay [17], > 100 µM (inactive); in assay [6], > 100 µM (inactive). The GI50 in assay [7], in assay [8], in [18], in assay [9], in assay [10] and in [11] was > 100 µM (inactive) each time. Further, the GI50 in assay [12], in assay [13], in assay [14], in assay [15] and in assay [16] was > 100 µM (inactive) throughout.
Consider `COC(=O)C1Cc2c(n(Cc3ccccc3)c3ccccc23)C(CCC(=O)O)N1C(C)C` (centres undefined), for which the GI50 is > 100 µM (inactive) in [1]; > 100 µM (inactive) in assay [2]; > 100 µM (inactive) in assay [3]; above 100 µM in assay [4]; > 100 µM (inactive) in assay [5]; > 100 µM (inactive) in assay [17]. Also, the GI50 in [6], in assay [7], in [8], in assay [18], in [9] and in assay [10] was > 100 µM (inactive) throughout. Besides, the GI50 in [11], in assay [12], in [13], in assay [14], in [15] and in [16] was > 100 µM (inactive) each time.
Regarding `CCCCCCCCCCC(O)[C@H]1CCC(C2CC[C@H]([C@H](O)CCCCCCCCCCC(O)CC3=CC(C)OC3=O)O2)O1` (some centres undefined), the GI50 in assay [1] is 2.17 µM (inactive); in assay [2], < 0.01 µM (active); in assay [19], 4.57 µM (inactive); in assay [3], 1.94 µM (inactive); in assay [4], 2.01 µM; in [5], 2.44 µM (inactive). Further, the GI50 in assay [17] was 0.0493 µM (active); in assay [6], 1.46 µM (inactive); in assay [7], 2.75 µM (inactive); in assay [8], 3.08 µM (inactive); in assay [18] it was 1.48 µM (inactive); in [9] it was 2.05 µM (inactive). The GI50 was 1.82 µM (inactive) in assay [10]; 1.76 µM (inactive) in assay [11]; 1.59 µM (inactive) in assay [12]; 3.03 µM (inactive) in assay [13]; 1.27 µM (inactive) in [14]; 1.45 µM (inactive) in [15]. The GI50 in assay [16] is 1.15 µM (inactive).
`Cc1ccc(S(=O)(=O)N2CCCCC2CCO)cc1` (centres undefined): the GI50 in [1] is > 100 µM (inactive); in [2] it was > 100 µM (inactive); in [3], > 100 µM (inactive); in assay [4], above 100 µM; in [5], > 100 µM (inactive); in [17], > 100 µM (inactive). For the same compound, the GI50 was 0.0342 µM (active) in assay [6]; > 100 µM (inactive) in [7]; > 100 µM (inactive) in assay [8]; > 100 µM (inactive) in assay [18]; > 100 µM (inactive) in assay [10]; > 100 µM (inactive) in assay [11]. Moreover, the GI50 in [12], in [13], in assay [14], in [15] and in assay [16] was > 100 µM (inactive) each time.
For `O=C(Nc1c(O)[nH]c(=S)[nH]c1=O)c1ccc2ccccc2n1`, the GI50 in assay [1] was > 100 µM (inactive); in assay [2] it was > 100 µM (inactive); in assay [3], > 100 µM (inactive); in assay [4], above 100 µM; in assay [5], > 100 µM (inactive); in [17], > 100 µM (inactive). For the same compound, the GI50 in assay [6], in assay [7], in [18], in assay [9], in assay [10] and in [11] was > 100 µM (inactive) in each case. In addition, the GI50 in assay [12], in [13], in [14], in [15] and in [16] was > 100 µM (inactive) in each case.
Turning to `CCC(Oc1ccc(OC)c2c1C(=O)CCC2)C(=O)O` (centres undefined), the GI50 in assay [1] is > 100 µM (inactive); in assay [2], > 100 µM (inactive); in assay [4] it was above 100 µM; in assay [17], > 100 µM (inactive); in assay [6], > 100 µM (inactive); in assay [7] it was > 100 µM (inactive). The GI50 in assay [8], in assay [18], in assay [9], in assay [10], in assay [11] and in assay [12] was > 100 µM (inactive) each time. Also, the GI50 in assay [13], in assay [14], in assay [15] and in [16] was > 100 µM (inactive) in each case.
Take `COc1ccc(/C=C/C(=O)C(C)C)cc1`: the GI50 was 35.5 µM (inactive) in assay [1]; 15.2 µM (inactive) in assay [2]; 49.8 µM (inactive) in [3]; 27.2 µM in assay [4]; 54.8 µM (inactive) in [5]; 32.6 µM (inactive) in assay [17]. Besides, the GI50 in assay [6] is 20.6 µM (inactive); in [7], 47.9 µM (inactive); in assay [8], > 100 µM (inactive); in [18] it was 34.8 µM (inactive); in assay [9] it was > 100 µM (inactive); in [10], 46.7 µM (inactive). The GI50 in assay [11] is 40.6 µM (inactive); in [12] it was 92 µM (inactive); in [13], 34.1 µM (inactive); in assay [14], 63.7 µM (inactive); in assay [15] it was 45 µM (inactive); in assay [16], 80.2 µM (inactive).
